Results on ten compounds are retold here after ChEMBL document CHEMBL1201862, “PubChem BioAssay data set” (2004).

Among the test systems are ACHN; HCT-116; K562; SK-MEL-2; SK-MEL-5; HCT-15; SNB-19; HOP-62; SK-MEL-28; KM12; OVCAR-5; SF-268; DU-145; U-251; HT-29; RXF 393; SN12C; HL-60; SF-539; HOP-92.
Experiment in all cases: inhibition of tumour cell growth, NCI panel, 48 h

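How tested: cells in 96-well plates exposed to compound for 48 hours at five concentrations. GI50 is the concentration that inhibits growth by half.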 Calls of active or inactive are those of the source. Cut-off read from the data, not from the text of the source: active = GI50 up to about 1.1 µM and inactive = higher. Starred links: 1 amine or outer side, 2 acyl side, 3 side chain; linkers in the order of their positions; H or OH if unused. Positions of bridges follow the written chain, without caps; N, C: chain ends. Non-standard residues stand in square brackets, D forms with d. Residues, ends and D or L forms follow the SMILES beside them. Chains are numbered I, II in the order given. Actinocin(9to1) = Cc1c2oc3c(C)ccc(C(=O)[*:1])c3nc-2c(C(=O)[*:2])c(N)c1=O; NMeV = CN[CH](C(=O)O)C(C)C; Sar = CNCC(=O)O

For the compound `COc1ccc2cc(C(=O)NCCCNC(=O)c3ccc4c(OC)c(OC)ccc4c3)ccc2c1OC`, the GI50 in the assay with ACHN was > 100 µM (inactive); in the assay with HCT-116, > 100 µM (inactive); in the assay with K562, > 100 µM (inactive); with SK-MEL-2, > 100 µM (inactive); with SK-MEL-5, > 100 µM (inactive); in the assay with HCT-15, more than 100 µM. Also, the GI50 in the assay with SNB-19, with HOP-62, with SK-MEL-28, with KM12, with OVCAR-5 and with SF-268 was > 100 µM (inactive) each time. The GI50 with DU-145, in the assay on U-251, with HT-29, in the assay with RXF 393 and in the assay with SN12C was > 100 µM (inactive) throughout.
Take `Cc1c(-c2ccccc2)[nH]c2cc(Cl)ccc2c1=O`: the GI50 was 55.8 µM (inactive) with ACHN; 23.8 µM (inactive) in the assay on HCT-116; 16.4 µM (inactive) with K562; 37.8 µM (inactive) with SK-MEL-2; 23.1 µM (inactive) with HL-60; 35.1 µM (inactive) in the assay with SK-MEL-5. The GI50 in the assay with HCT-15 is 17.2 µM; with SNB-19, 52.8 µM (inactive); in the assay on HOP-62 it was 23 µM (inactive); with SF-539, 39.8 µM (inactive); with SK-MEL-28, 71.9 µM (inactive); in the assay on KM12, 0.74 µM (active). Besides, the GI50 in the assay on OVCAR-5 is > 100 µM (inactive); with SF-268, 33.5 µM (inactive); with DU-145 it was > 100 µM (inactive); with U-251, 25.8 µM (inactive); in the assay on HT-29, > 100 µM (inactive); with RXF 393 it was 18.6 µM (inactive). Further, the GI50 in the assay with SN12C was > 100 µM (inactive).
Regarding `CN1C(C)(C)CC(=O)C(Br)C1(C)C` (centres undefined), the GI50 in the assay with ACHN is > 100 µM (inactive); in the assay with HCT-116, > 10 µM (inactive); with K562, > 100 µM (inactive); in the assay on SK-MEL-2 it was > 100 µM (inactive); with HL-60, > 100 µM (inactive); in the assay on SK-MEL-5, > 100 µM (inactive). The GI50 is more than 100 µM with HCT-15; > 100 µM (inactive) in the assay on SNB-19; > 100 µM (inactive) with HOP-62; > 100 µM (inactive) in the assay with SK-MEL-28; > 100 µM (inactive) in the assay on KM12; > 100 µM (inactive) in the assay on HOP-92. Further, the GI50 in the assay with OVCAR-5, in the assay on SF-268, in the assay with DU-145, with U-251, in the assay on HT-29 and with SN12C was > 100 µM (inactive) each time.
In the case of `CC(=O)O[C@H]1CC[C@H]2[C@@H]3CCC4=C/C(=N/OCCN(C)C)CC[C@]4(C)[C@H]3CC[C@]12C`, the GI50 in the assay with ACHN is 13.4 µM (inactive); in the assay on HCT-116 it was 4.25 µM (inactive); in the assay with K562 it was 2.11 µM (inactive); in the assay on SK-MEL-2, 11 µM (inactive); in the assay with HL-60 it was 1.88 µM (inactive); in the assay with SK-MEL-5, 4.58 µM (inactive). Also, the GI50 with HCT-15 is 2.22 µM; in the assay on SNB-19, 7.59 µM (inactive); in the assay on HOP-62, 13.4 µM (inactive); in the assay with SF-539, 2.52 µM (inactive); in the assay on SK-MEL-28, 14.6 µM (inactive); with KM12, 5.61 µM (inactive). Further, the GI50 was 16.9 µM (inactive) in the assay with OVCAR-5; 13.1 µM (inactive) with SF-268; 16.1 µM (inactive) in the assay with DU-145; 13.3 µM (inactive) in the assay with U-251; 2.06 µM (inactive) in the assay on HT-29; 12 µM (inactive) in the assay with RXF 393. The GI50 with SN12C was 16.9 µM (inactive).
For `O=C(Cn1c2ccc(Br)cc2c2nc3ccccc3nc21)NNC(=O)NC1CCCCC1`, the GI50 was > 100 µM (inactive) in the assay with ACHN; 57.3 µM (inactive) with HCT-116; 47.1 µM (inactive) with K562; > 100 µM (inactive) in the assay on SK-MEL-2; > 100 µM (inactive) in the assay on SK-MEL-5; 89.1 µM (inactive) with SNB-19. Besides, the GI50 with HOP-62 is 27.7 µM (inactive); in the assay with SF-539 it was > 100 µM (inactive); in the assay with SK-MEL-28, 45.2 µM (inactive); in the assay with KM12, 37.4 µM (inactive); with OVCAR-5 it was 52.8 µM (inactive); with SF-268 it was 45.5 µM (inactive). The GI50 in the assay on DU-145 was 24.9 µM (inactive); with U-251, 30.1 µM (inactive); in the assay on RXF 393, 78.2 µM (inactive); in the assay with SN12C, 52.8 µM (inactive).
Take `Cn1c(CO)ccc1-c1ccc(-c2ccc(CO)[se]2)[se]1`: the GI50 is 19.3 µM (inactive) with ACHN; 0.859 µM (active) in the assay with HCT-116; 1.35 µM (inactive) with K562; 7.59 µM (inactive) in the assay on SK-MEL-2; 7.91 µM (inactive) in the assay with HL-60; 2.28 µM (inactive) in the assay on SK-MEL-5. Moreover, the GI50 is 9.82 µM with HCT-15; > 63.4 µM (inactive) with SNB-19; 7.28 µM (inactive) with HOP-62; 67 µM (inactive) in the assay on SF-539; 17 µM (inactive) with SK-MEL-28; 21.4 µM (inactive) with KM12. Further, the GI50 was > 78.5 µM (inactive) in the assay on SF-268; 12.9 µM (inactive) in the assay with DU-145; 0.528 µM (active) in the assay on U-251; 37.7 µM (inactive) with HT-29; > 26.2 µM (inactive) in the assay on RXF 393; 10.6 µM (inactive) in the assay on SN12C.
As for `CC(C)CC(C(N)=O)C(=O)NC(Cc1ccccc1)NC(=O)CNC(=O)C(C)NC(=O)C(N)Cc1ccc(O)cc1` (centres undefined), the GI50 with ACHN, in the assay on HCT-116, in the assay with K562, in the assay with SK-MEL-2, in the assay on HL-60 and in the assay on SK-MEL-5 was > 100 µM (inactive) in each case. The GI50 in the assay with HCT-15 was more than 100 µM; with SNB-19 it was > 100 µM (inactive); with HOP-62 it was > 100 µM (inactive); with SF-539 it was > 100 µM (inactive); in the assay with SK-MEL-28, > 100 µM (inactive); with KM12, > 100 µM (inactive). Besides, the GI50 with OVCAR-5, with SF-268, in the assay with DU-145, in the assay with U-251, in the assay with HT-29 and with RXF 393 was > 100 µM (inactive) throughout. In the assay on SN12C, the GI50 was > 100 µM (inactive).
For the compound `Cc1cc(N(CCC#N)CCC#N)ccc1C(/N=N/c1ccc(Cl)cc1)=N\NC(=O)c1ccccc1`, the GI50 was 82 µM (inactive) in the assay with ACHN; 26.5 µM (inactive) in the assay with HCT-116; 14.9 µM (inactive) in the assay with K562; 84.1 µM (inactive) with SK-MEL-2; 25.5 µM (inactive) with HL-60; 22 µM (inactive) with SK-MEL-5. Besides, the GI50 in the assay on HCT-15 was 16 µM; in the assay with SNB-19 it was 41.9 µM (inactive); in the assay with HOP-62, 59.6 µM (inactive); with SF-539, 7.62 µM (inactive); with KM12, 20.2 µM (inactive); with OVCAR-5 it was > 100 µM (inactive). Further, the GI50 with SF-268 was 41.9 µM (inactive); in the assay on DU-145 it was 44.7 µM (inactive); in the assay on U-251 it was 40.7 µM (inactive); in the assay with HT-29 it was 20.5 µM (inactive); with RXF 393 it was 49.2 µM (inactive); in the assay on SN12C, 44.2 µM (inactive).
Regarding `CCCCC[C@H]1CCCCCCCCCC(=O)OC2C(O[C@@H]3OC(C)[C@H](OC(=O)[C@@H](C)CC)C(O[C@@H]4OC(C)[C@H](O)C(O)[C@@H]4O)[C@@H]3OC(=O)[C@H](C)CC)[C@H](OC3C(O)[C@@H](O)C(C)O[C@H]3O1)OC(CO)[C@H]2O` (some centres undefined), the GI50 in the assay with ACHN was > 10 µM (inactive); with HCT-116, 16.1 µM (inactive); with K562, 18.8 µM (inactive); in the assay on SK-MEL-2, 16.4 µM (inactive); in the assay with HL-60 it was 19 µM (inactive); in the assay with SK-MEL-5, 17.1 µM (inactive). The GI50 was 16.7 µM with HCT-15; 16.1 µM (inactive) in the assay on SNB-19; 18.2 µM (inactive) with HOP-62; 16.1 µM (inactive) in the assay with SK-MEL-28; 20 µM (inactive) in the assay on KM12; 22.3 µM (inactive) in the assay on HOP-92. In addition, the GI50 was 16.7 µM (inactive) in the assay with OVCAR-5; 16.3 µM (inactive) in the assay with SF-268; 16.2 µM (inactive) in the assay with DU-145; 17.9 µM (inactive) with U-251; 16.7 µM (inactive) in the assay on HT-29; 17.5 µM (inactive) in the assay with SN12C.
On to `Cc1c2oc3c(C)ccc(C(=O)NC4C(=O)NC(Cc5ccc(O)cc5)C(=O)N5CCCC5C(=O)N(C)CC(=O)N(C)C(C(C)C)C(=O)OC4C)c3nc-2c(C(=O)NC2C(=O)NC(Cc3ccc(O)cc3)C(=O)N3CCCC3C(=O)N(C)CC(=O)N(C)C(C(C)C)C(=O)OC2C)c(N)c1=O` (centres undefined) (I: TYP[Sar][NMeV] / II: TYP[Sar][NMeV]; ester I:1-I:C, II:1-II:C; linker I:N-II:N via Actinocin(9to1); configuration not given here), for which the GI50 in the assay with ACHN is 0.397 µM (active); in the assay with HCT-116, 0.11 µM (active); with K562, 0.354 µM (active); in the assay on SK-MEL-5 it was 0.163 µM (active); with HCT-15, 8.65 µM; in the assay on SNB-19, 0.449 µM (active). In addition, the GI50 is 2.33 µM (inactive) with HOP-62; 0.726 µM (active) in the assay with SF-539; 0.365 µM (active) with SK-MEL-28; 0.577 µM (active) with KM12; 7.66 µM (inactive) in the assay on OVCAR-5; 0.16 µM (active) with SF-268. Also, the GI50 is 1.43 µM (inactive) in the assay with DU-145; 0.374 µM (active) in the assay with U-251; 0.755 µM (active) with HT-29; 0.406 µM (active) with RXF 393; 1.48 µM (inactive) in the assay with SN12C.
